Measured values taken from PMC10202811 (Nature Medicine, 2023).
“And” between values parts separate entries of the source, which are not always exact repeats. Equal entries are not always repeated.

Assay: Plasma pharmacokinetics of lorlatinib at steady state (LC-MS/MS, non-compartmental analysis)
Format: in vivo, human
Set-up: Vz_F / Cmax_D / AUMClast / AUMC_TAU: unit not given here
Details: for Tlag: unit assumed
Description: Lorlatinib was isolated from human plasma by a liquid-iquid extraction procedure. […] A linear-log trapezoidal method was used [NT] A best-fit method was used to estimate terminal elimination and to extrapolate any plasma concentration versus time profiles to compute [NT].

[1] = Cohort A1, 45 mg/m2 per dose, C1D15, Max, N 3
[2] = Cohort A1, 45 mg/m2 per dose, C1D15, Min, N 3
[3] = Cohort A1, 45 mg/m2 per dose, C1D15, individual patient
[4] = Cohort A1, 60 mg/m2 per dose, C1D15, Max, N 3
[5] = Cohort A1, 60 mg/m2 per dose, C1D15, Min, N 3
[6] = Cohort A1, 60 mg/m2 per dose, C1D15, individual patient
[7] = Cohort A1, 75 mg/m2 per dose, C1D15, Max, N 3
[8] = Cohort A1, 75 mg/m2 per dose, C1D15, Min, N 3
[9] = Cohort A1, 75 mg/m2 per dose, C1D15, individual patient
[10] = Cohort A1, 95 mg/m2 per dose, C1D15, Max, N 9
[11] = Cohort A1, 95 mg/m2 per dose, C1D15, Min, N 9
[12] = Cohort A1, 95 mg/m2 per dose, C1D15, individual patient
[13] = Cohort A1, 115 mg/m2 per dose, C1D15, Max, N 6
[14] = Cohort A1, 115 mg/m2 per dose, C1D15, Min, N 6
[15] = Cohort A1, 115 mg/m2 per dose, C1D15, individual patient
[16] = Cohort A2, 100 mg per dose, C1D15, Max, N 5
[17] = Cohort A2, 100 mg per dose, C1D15, Min, N 5
[18] = Cohort A2, 100 mg per dose, C1D15, individual patient
[19] = Cohort A2, 150 mg per dose, C1D15, Min, N 10
[20] = Cohort A2, 150 mg per dose, C1D15, individual patient
[21] = Cohort B2, 95 mg/m2 per dose, C1D15, Min, N 2
[22] = Cohort B2, 95 mg/m2 per dose, C1D15, individual patient
[23] = Cohort B2, 115 mg/m2 per dose, C1D15, Max, N 6
[24] = Cohort B2, 115 mg/m2 per dose, C1D15, Min, N 6
[25] = Cohort B2, 115 mg/m2 per dose, C1D15, individual patient
[26] = Cycle 1 Day 1, Cohort A1, 95 mg/m2 per dose
[27] = Cycle 1 Day 1, Cohort A1, 115 mg/m2 per dose
[28] = Cycle 1 Day 1, Cohort A2, 150 mg per dose
[29] = Cycle 1 Day 1, Cohort A2, 150 mg per dose, in h (unit assumed)
[30] = Cycle 1 Day 1, Cohort A2, 150 mg per dose, in ng·h/mL (unit assumed)

C[C@H]1Oc2cc(cnc2N)-c2c(nn(C)c2C#N)CN(C)C(=O)c2ccc(F)cc21 [Lorlatinib, (10R)-7-amino-12-fluoro-2,10,16-trimethyl-15-oxo-10,15,16,17-tetrahydro-2H-8,4-(metheno)pyrazolo[4,3-h][2,5,11]-benzoxadiazacyclotetradecine-3-carbonitrile]
AUCtau or Cmax at steady state with oral dispersion formulation (17 patients who received the oral dispersion formulation): no differences | CLss_F (Cohort A1, 45 mg/m2 per dose, C1D15, Geometric Mean, N 3): 15.376 L/h | AUC_TAU [1]: 3727.9 ng·h/mL | CLss_F [1]: 19.85 L/h | Cmax [1]: 639 ng/mL | Tmax [1]: 2 h | AUC_TAU [2]: 1259.74 ng·h/mL | Cmax [2]: 243 ng/mL | Tmax [2]: 1 h | AUC_TAU [3]: 1259.74 ng·h/mL and 3727.9 ng·h/mL | CLss_F [3]: 19.85 L/h and 12.41 L/h and 14.75 L/h | Cmax [3]: 639 ng/mL and 243 ng/mL | Tmax [3]: 2 h | CLss_F (Cohort A1, 60 mg/m2 per dose, C1D15, Geometric Mean, N 3): 13.223 L/h | AUC_TAU [4]: 4173.07 ng·h/mL | CLss_F [4]: 16.77 L/h | Cmax [4]: 623 ng/mL | Tmax [4]: 2 h | CLss_F (Cohort A1, 60 mg/m2 per dose, C1D15, Median, N 3): 12.07 L/h | AUC_TAU [5]: 3503.02 ng·h/mL | CLss_F [5]: 11.42 L/h | Cmax [5]: 343 ng/mL | Tmax [5]: 1 h | AUC_TAU [6]: 3503.02 ng·h/mL and 4173.07 ng·h/mL | CLss_F [6]: 12.07 L/h and 11.42 L/h and 16.77 L/h | Cmax [6]: 343 ng/mL | Tmax [6]: 2 h | CLss_F (Cohort A1, 75 mg/m2 per dose, C1D15, Geometric Mean, N 3): 15.412 L/h | AUC_TAU [7]: 6555.75 ng·h/mL | CLss_F [7]: 18.36 L/h | Cmax [7]: 670 ng/mL | Tmax [7]: 6 h | CLss_F (Cohort A1, 75 mg/m2 per dose, C1D15, Median, N 3): 17.43 L/h | AUC_TAU [8]: 2723.69 ng·h/mL | CLss_F [8]: 11.44 L/h | Cmax [8]: 609 ng/mL | Tmax [8]: 1 h | AUC_TAU [9]: 6555.75 ng·h/mL and 2723.69 ng·h/mL | CLss_F [9]: 11.44 L/h and 17.43 L/h and 18.36 L/h | Cmax [9]: 609 ng/mL and 670 ng/mL | Tmax [9]: 6 h and 2 h | CLss_F (Cohort A1, 95 mg/m2 per dose, C1D15, Geometric Mean, N 9): 9.802 L/h | AUC_TAU [10]: 14697.9 ng·h/mL | CLss_F [10]: 14.62 L/h | Cmax [10]: 1880 ng/mL | CLss_F (Cohort A1, 95 mg/m2 per dose, C1D15, Median, N 9): 10.12 L/h | AUC_TAU [11]: 3760.87 ng·h/mL | CLss_F [11]: 6.46 L/h | Cmax [11]: 590 ng/mL | Tmax [11]: 1 h | AUC_TAU [12]: 14697.9 ng·h/mL and 11566.7 ng·h/mL and 5234.23 ng·h/mL and 6616.73 ng·h/mL and 4786.75 ng·h/mL and 7725.79 ng·h/mL and 3760.87 ng·h/mL and 12827.9 ng·h/mL | CLss_F [12]: 6.46 L/h and 12.54 L/h and 10.51 L/h and 8.31 L/h and 12.53 L/h and 7.77 L/h and 10.12 L/h and 14.62 L/h and 8.19 L/h | Cmax [12]: 1420 ng/mL and 607 ng/mL and 842 ng/mL and 590 ng/mL and 1230 ng/mL and 1220 ng/mL and 938 ng/mL and 1880 ng/mL | Tmax [12]: 2 h | CLss_F (Cohort A1, 115 mg/m2 per dose, C1D15, Geometric Mean, N 6): 11.462 L/h | AUC_TAU [13]: 14092.4 ng·h/mL | CLss_F [13]: 16.79 L/h | Cmax [13]: 2090 ng/mL | CLss_F (Cohort A1, 115 mg/m2 per dose, C1D15, Median, N 6): 10.95 L/h | AUC_TAU [14]: 5878.52 ng·h/mL | CLss_F [14]: 7.45 L/h | Cmax [14]: 708 ng/mL | Tmax [14]: 1 h | AUC_TAU [15]: 8206.77 ng·h/mL and 6238.52 ng·h/mL and 11011.1 ng·h/mL and 5878.52 ng·h/mL and 8933.2 ng·h/mL and 14092.4 ng·h/mL | CLss_F [15]: 15.84 L/h and 9.62 L/h and 9.99 L/h and 11.91 L/h and 16.79 L/h and 7.45 L/h | Cmax [15]: 708 ng/mL and 1210 ng/mL and 1530 ng/mL and 859 ng/mL and 2090 ng/mL | Tmax [15]: 2 h | CLss_F (Cohort A2, 100 mg per dose, C1D15, Geometric Mean, N 5): 14.731 L/h | AUC_TAU [16]: 16686 ng·h/mL | CLss_F [16]: 32.13 L/h | Cmax [16]: 1830 ng/mL | CLss_F (Cohort A2, 100 mg per dose, C1D15, Median, N 5): 16.3 L/h | AUC_TAU [17]: 3111.99 ng·h/mL | CLss_F [17]: 5.99 L/h | Cmax [17]: 341 ng/mL | Tmax [17]: 1 h | AUC_TAU [18]: 16686 ng·h/mL and 10710.2 ng·h/mL and 3111.99 ng·h/mL and 4225.59 ng·h/mL | CLss_F [18]: 5.99 L/h and 9.34 L/h and 32.13 L/h and 16.3 L/h and 23.67 L/h | Cmax [18]: 1830 ng/mL and 1630 ng/mL and 341 ng/mL and 528 ng/mL | Tmax [18]: 2 h | AUC_TAU (Cohort A2, 150 mg per dose, C1D15, Max, N 10): 8297.22 ng·h/mL | AUC_TAU [19]: 4999.09 ng·h/mL | Cmax [19]: 502 ng/mL | Tmax [19]: 1 h | AUC_TAU [20]: 7380.68 ng·h/mL and 6784.89 ng·h/mL and 4999.09 ng·h/mL and 5689.56 ng·h/mL and 7693.93 ng·h/mL and 6576.81 ng·h/mL and 7115.87 ng·h/mL and 7004.8 ng·h/mL and 8297.22 ng·h/mL | CLss_F [20]: 25.34 L/h and 20.32 L/h and 22.11 L/h and 30.01 L/h and 26.36 L/h and 19.5 L/h and 22.81 L/h and 21.08 L/h | Cmax [20]: 647 ng/mL and 750 ng/mL and 502 ng/mL and 670 ng/mL and 912 ng/mL and 943 ng/mL and 602 ng/mL and 814 ng/mL | Tmax [20]: 2 h | AUC_TAU [21]: 5523.12 ng·h/mL | Cmax [21]: 721 ng/mL | Tmax [21]: 2 h | AUC_TAU [22]: 5523.12 ng·h/mL | Cmax [22]: 721 ng/mL | Tmax [22]: 2 h | CLss_F (Cohort B2, 115 mg/m2 per dose, C1D15, Geometric Mean, N 6): 13.049 L/h | AUC_TAU [23]: 17825.7 ng·h/mL | CLss_F [23]: 20.8 L/h | Cmax [23]: 2190 ng/mL | Tmax [23]: 2 h | CLss_F (Cohort B2, 115 mg/m2 per dose, C1D15, Median, N 6): 12.47 L/h | AUC_TAU [24]: 5493.74 ng·h/mL | CLss_F [24]: 7.85 L/h | Cmax [24]: 766 ng/mL | Tmax [24]: 1 h | AUC_TAU [25]: 17825.7 ng·h/mL and 6932.9 ng·h/mL and 8905.09 ng·h/mL and 5493.74 ng·h/mL and 6008.87 ng·h/mL and 6951.39 ng·h/mL | Cmax [25]: 2190 ng/mL and 1680 ng/mL and 1330 ng/mL and 766 ng/mL | Tmax [25]: 2 h | Tlast [26]: 24 h | Tmax (Cycle 1 Day 1, Cohort A1, 95 mg/m2 per dose, listed as lorlatinib, in h (unit assumed)): 2 | Tlag [26]: 0 h | Tlast [27]: 24 h | Tmax (Cycle 1 Day 1, Cohort A1, 115 mg/m2 per dose, in h (unit assumed)): 1 | Tmax (Cycle 1 Day 1, Cohort A1, 115 mg/m2 per dose, listed as lorlatinib, in h (unit assumed)): 2 | Tlag [27]: 0 h | AUMClast [28]: 83897.37077 and 79949.21779 and 69497.95951 and 102751.9946 and 91445.2354 and 87523.98089 and 72181.31228 | Tlast [28]: 24 h | MRTlast [29]: 8.731 and 10.12 and 8.547 and 10.11 and 9.639 and 8.636 | Tmax [29]: 2 | Clast (Cycle 1 Day 1, Cohort A2, 150 mg per dose, in ng/mL): 158 and 127 and 138 and 146 and 206 | AUCall [30]: 9157 and 6869 and 12022.44647 and 9046 and 9080 | AUClast [30]: 9157 and 6869 and 12022.44647 and 9046 and 9080 and 8359
